Numbered stars: 1 amine (or outer) side, 2 acyl side, 3 side chain; on linkers, the order of the positions; unused ones are H or OH. Square brackets hold non-standard residues; d marks the D form. Peptide text beside a SMILES is read from it. * marks the point of attachment. 5FAM = O=C1OC2(c3ccc(O)cc3Oc3cc(O)ccc32)c2ccc(C(=O)*)cc21; X1 = CO[C@H]1CC(N[*:1])(C(=O)[*:2])C[C@@H]1OC; αMeL = CC(C)C[C@](C)(N)C(=O)O; Ac5c = NC1(C(=O)O)CCCC1
What was measured:
[1] = system: CHO-K1 cells; assay: Cellular uptake of CF-labeled peptides into CHO-K1 cells (flow cytometry); assay type: cell-based; conditions: n = 3; for cellular uptake, course over incubation time: CHO-K1, 1 µM peptide, 2, 6 and 24 h, compared with peptides of only natural α-amino acids; for cellular uptake compared with Arg peptide / cellular uptake, rank among the peptides containing dAAs: CHO-K1, 1 µM peptide; for cellular uptake compared with Arg peptide: DMEM 10% FBS; for cellular uptake, rank among the peptides containing dAAs: 2-24 h
Description: (§1) Cellular uptake of peptides was assessed against HeLa (Fig. 5a) and CHO-K1 cells (Fig. 5b) at a concentration of 1 µM and various incubation times (2, 6, and 24 h). […] Not only stabilities against protease digestion but also other factors might contribute to prolongation of the cell-penetrating ability of peptides. […] The number of Arg residues in Arg-rich peptides is very important for their cell-penetrating ability, and six Arg are not enough. […] Substitution of Arg in Arg peptide with Ac5c, Ac5c^dOM, or (αMe)Leu positively affected its cell-penetrating ability compared with Aib. In comparison, among the peptides containing dAAs, (αMe)Leu peptide was the best for HeLa cell, Ac5c peptide was the best for CHO-K1 cell, and Ac5c^dOM peptide was the worst for both cell types (Fig. 5). Although the best peptides were different depending on cell type, the worst peptide was same for both cell types. […] Taken together, a stable helical structure by introducing dAAs into Arg-rich peptide enhanced their cell-penetrating abilities.
(§2) HeLa or CHO-K1 cells were seeded on 24-well culture plates (100,000 cells/well) and incubated in 400 µL of DMEM containing 10% FBS. The medium was then replaced with fresh medium, and a peptide solution was added to each well at a concentration of 1 µM. After each incubation time, the medium was removed and cells were washed with ice-cold PBS with heparin (20 units/mL) and trypsinized. After the addition of medium containing 10% FBS, fluorescence intensity was detected and acquired using an On-chip Flow (On-chip Biotechnologies Co., Ltd, Tokyo, Japan). The results are presented as a mean and standard deviation obtained from 3 samples.

[2] = Resistance to protease digestion with trypsin; assay type: in vitro ADME; conditions: 10 µM peptide in 2.5 × 10^−6 w/v% trypsin/PBS, 37 °C, RP-HPLC, α-CHCA internal standard, read-out: intact peptide after incubation with trypsin
Excerpt: Next, we examined the stability of peptides against protease digestion using trypsin (Fig. 4a) and pronase (Fig. 4b). One of the advantages of peptide foldamers containing dAAs is their high resistance to degradation by proteases[38]–[40]. Trypsin is a serine protease that cleaves amide bonds at the C terminus of cationic amino acids such as Arg and lysine. Pronase is a non-specific protease mixture produced in the culture supernatant of Streptomyces griseus. Ac5c, Ac5c^dOM, (αMe)Leu, and Leu peptides were incubated with trypsin or pronase for 1, 2, and 4 h, and then rate of intact peptide was evaluated by RP-HPLC using α-cyano-4-hydroxycinnamic acid (α-CHCA) as an internal standard. Leu peptide was promptly degraded by both trypsin and pronase, and reached 0% intact peptide after 4 h incubation in a similar manner to Arg peptide reported previously[24],[25]. On the other hand, approximately 80% of Ac5c, Ac5c^dOM, and (αMe)Leu peptides remained intact even after 4 h incubation. Introduction of dAAs into peptides markedly elevated resistance to protease digestion, whether or not peptides formed stable helical structures. In other words, peptides composed of only natural α-amino acids were easily degraded by proteases independently of their peptide secondary structures.
One-hundred microliters of peptide solution (10 µM) in 2.5 × 10^−6 w/v% trypsin or pronase/phosphate buffer saline (PBS) was incubated at 37 °C for 0, 1, 2, and 4 h. After each incubation time, 250 µL of 1% TFA/PBS solution was added to inactivate the proteases, and 50 µL of 1/2 diluted saturated α-CHCA solution was added as an internal standard, followed by HPLC analysis, which was performed using the above-mentioned conditions.

[3] = system: CHO-K1 cells; assay: Inhibition of cellular uptake by specific endocytosis inhibitors; assay type: cell-based; conditions: 30 min pre-incubation 37 °C, 1 µM peptide, 1 h, flow cytometry, n = 3; for uptake in presence of nystatin (caveolae-mediated endocytosis inhibitor): CHO-K1, nystatin 25 µg/mL; for uptake in presence of sucrose (clathrin-mediated endocytosis inhibitor): CHO-K1, sucrose 0.4 M
Description: To obtain further information on the cellular uptake mechanisms of peptides, inhibitory experiments were carried out using specific endocytosis inhibitors (amilorilde: macropinocytosis; sucrose: clathrin-mediated endocytosis; nystatin: caveolae-mediated endocytosis) against CHO-K1 cells (Fig. S5). […] (αMe)Leu peptide appeared to internalize into CHO-K1 cells via all three routes, while Ac5c peptide appeared to internalize mainly via clathrin-mediated endocytosis and caveolae-mediated endocytosis.
CHO-K1 cells were seeded on 24-well culture plates (100,000 cells/well) and incubated in 400 µL of DMEM containing 10% FBS. The medium was then replaced with fresh medium containing 10% FBS in the absence (untreated) or presence of amiloride (5 mM), sucrose (0.4 M), or nystatin (25 µg/mL), cells were pre-incubated at 37 °C for 30 min. A peptide solution was added to each well at a concentration of 1 µM. The medium was removed after 1-h incubation and subsequent operations were conducted in the same manner as cellular uptake experiments.
A c5cAc5c (aMe L e uMe)Leu untreated ami loride su cro se n ystatin
Figure S5. Effects of inhibitors on internalization of peptides against CHO-K1 cells. Error bars represent the standard deviation, n = 3. *P < 0.05, **P < 0.01.

[4] = system: HeLa cells; assay: Cellular uptake of CF-labeled peptides into HeLa cells (flow cytometry); assay type: cell-based; conditions: for cellular uptake, course over incubation time: 1 µM peptide, 2, 6 and 24 h, heparin wash, trypsinized, flow cytometry fluorescence, mean of n = 3; for cellular uptake, course over incubation time / cellular uptake compared with Arg peptide: DMEM 10% FBS; for cellular uptake, rank among the peptides containing dAAs / cellular uptake compared with Arg peptide: 1 µM peptide, flow cytometry, n = 3; for cellular uptake, rank among the peptides containing dAAs: 2-24 h; for cellular uptake compared with Arg peptide: 24 h
Description: as §1, §2

Row | SMILES | cellular uptake, course over incubation time [1] | cellular uptake compared with Arg peptide ([1]; 6 h) | cellular uptake compared with Arg peptide ([1]; 24 h) | remaining at 4 h, 10 µM [2] | uptake in presence of nystatin (caveolae-mediated endocytosis inhibitor) [3] | uptake in presence of sucrose (clathrin-mediated endocytosis inhibitor) [3] | cellular uptake, course over incubation time [4] | cellular uptake, rank among the peptides containing dAAs [4] | cellular uptake compared with Arg peptide [4] | cellular uptake, rank among the peptides containing dAAs [1] | uptake in presence of amiloride (macropinocytosis inhibitor) ([3]; CHO-K1, amiloride 5 mM)
1 | CC(C)C[C@](C)(NC(=O)[C@H](CCCNC(=N)N)NC(=O)[C@H](CCCNC(=N)N)NC(=O)[C@](C)(CC(C)C)NC(=O)[C@H](CCCNC(=N)N)NC(=O)[C@H](CCCNC(=N)N)NC(=O)[C@](C)(CC(C)C)NC(=O)[C@H](CCCNC(=N)N)NC(=O)[C@H](CCCNC(=N)N)NC(=O)CNC(=O)c1ccc2c(c1)C(=O)OC21c2ccc(O)cc2Oc2cc(O)ccc21)C(N)=O [(αMe)Leu peptide] (5FAM-GRR[αMeL]RR[αMeL]RR[αMeL]-NH2) | prolonged cell-penetrating ability | higher than that of Arg peptide | higher than that of Arg peptide | ~80% | significantly decreased | significantly decreased | increased cellular uptake from 2 to 6 h incubations and this was maintained after 24 h incubation | the best | higher than that of Arg peptide |  | 
2 | N=C(N)NCCC[C@H](NC(=O)CNC(=O)c1ccc2c(c1)C(=O)OC21c2ccc(O)cc2Oc2cc(O)ccc21)C(=O)N[C@@H](CCCNC(=N)N)C(=O)NC1(C(=O)N[C@@H](CCCNC(=N)N)C(=O)N[C@@H](CCCNC(=N)N)C(=O)NC2(C(=O)N[C@@H](CCCNC(=N)N)C(=O)N[C@@H](CCCNC(=N)N)C(=O)NC3(C(N)=O)CCCC3)CCCC2)CCCC1 [Ac5c peptide] (5FAM-GRR[Ac5c]RR[Ac5c]RR[Ac5c]-NH2) | prolonged cell-penetrating ability | higher than that of Arg peptide | higher than that of Arg peptide | ~80% | significantly decreased | significantly decreased | increased cellular uptake from 2 to 6 h incubations and this was maintained after 24 h incubation |  | higher than that of Arg peptide | the best | significantly decreased
3 | CO[C@H]1CC(NC(=O)[C@H](CCCNC(=N)N)NC(=O)[C@H](CCCNC(=N)N)NC(=O)C2(NC(=O)[C@H](CCCNC(=N)N)NC(=O)[C@H](CCCNC(=N)N)NC(=O)C3(NC(=O)[C@H](CCCNC(=N)N)NC(=O)[C@H](CCCNC(=N)N)NC(=O)CNC(=O)c4ccc5c(c4)C(=O)OC54c5ccc(O)cc5Oc5cc(O)ccc54)C[C@H](OC)[C@@H](OC)C3)C[C@H](OC)[C@@H](OC)C2)(C(N)=O)C[C@@H]1OC [Ac5c^dOM peptide] (5FAM-GRR[X1]RR[X1]RR[X1]-NH2) | prolonged cell-penetrating ability |  | higher than that of Arg peptide | ~80% |  |  | increased up to 24 h | the worst | higher than that of Arg peptide | the worst | 
